Data published in US20100143250A1, “COMPOUNDS FOR THE DIAGNOSIS OF APOPTOSIS” (priority 2007, published 2010).
Ends that are not written are not given here.

Legend:
[1] = Annexin V competition assay for peptide LIKKPF on immobilized PS (ELISA plate); assay type: binding; settings: interaction of peptide LIKKPF with PS, FIG. 1
Protocol: The affinity of the peptide LIKKPF (SEQ ID No 11) is measured on immobilized PS (ELISA plate). […] Incubation at 37° C. is sustained for 1.5 hours. The bound annexin V is detected by adding a solution of streptavidin-HRP, and then a solution of ABTS substrate containing 0.05% of H2O2. The OD405 is measured in order to calculate the IC50 value of the peptide.

[2] = Interaction of USPIO-LIKKPF with immobilized PS, iron assayed with Prussian blue; assay type: binding; settings: 2 hours at 37° C., read-out: K*d value
Protocol: The affinity of the USPIO-LIKKPF is measured on immobilized PS (120 μg/ml). After saturation of the nonspecific sites, the USPIO-LIKKPF is incubated at increasing concentrations (122 nM-4 mM with respect to iron) for 2 hours at 37° C. After washing of the wells, the molecules bound to the PS are digested in one volume of 5N HCl. The samples are digested in one volume of 5N HCl, for 48 h at 37° C., and the iron is assayed using Prussian blue (OD630).

[3] = Annexin V competition assay for the interaction of USPIO-LIKKPF with PS; assay type: binding; settings: FIG. 3
[4] = system: dopaminergic neurons treated with MPP+; test: MRI detection in cell culture, healthy cells vs cells treated with MPP+; assay type: cell-based, rat
Protocol: (§1) MRI studies were carried out on C57BI/6 mice treated with MPTP (or its metabolite MPP+ for cell cultures), a neurotoxin which induces a “parkinsonien” syndrome.
In cell culture, the death of dopaminergic neurons by apoptosis was verified using rat brains, by immunohistochemistry and detection of caspase 3 enzyme activity. For the MRI detection in cell culture, the healthy cells and cells treated with MPP+ were brought into contact with USPIO-LIKKPF.

[5] = system: apoptotic nervous tissues; test: MRI of mice treated with MPTP (model of Parkinson's disease); assay type: in vivo; settings: 4th, 5th, 6th day of treatment, one and three weeks after
Protocol: In a model of Parkinson's disease, with the injection of USPIO-LIKKPF product (product of example 1)
as §1
The diseased and healthy mice were studied on the 4th, 5th and 6th day of treatment, and one and three weeks after the end of the treatment with MPTP. […] The MRI localization of the diseased regions corresponds to the regions containing dopaminergic neurons (immunohistochemistry: detection of dopaminergic neurons by measuring tyrosine hydroxylase in the central gray nuclei).

apoptotic Jurkat cells = test: In vitro MRI on apoptotic or control Jurkat cells preincubated with USPIO; assay type: cell-based
Protocol: The in vitro MRI is carried out on apoptotic (or control) cells preincubated with the USPIO-LIKKPF or unfunctionalized USPIO (3 or 4 mM with respect to iron) for 2 hours at 37° C. Jurkat cell apoptosis is induced by a treatment with 2 μM camptothecin for 24 hours. After incubation with the USPIO, the labeled cells are transferred into a 0.2% gelatin solution for analysis by MRI (Bruker Avance-200, 4.7 T, TR/TE=3000/20 ms, 30 echos, matrix=256×256, FOV=4 cm, slice thickness=1 mm) in ELISA plate wells.

mouse apoptotic liver = test: MRI of apoptotic liver in the mouse (anti-Fas antibody induced); assay type: in vivo, Balb/c mice
Protocol: The targeting effectiveness of the Gd-DTPA-LIKKPF product by MRI was also evaluated on a model of apoptotic liver in the mouse. The apoptosis is induced by means of an i.v. injection (caudal vein) of anti-Fas monoclonal antibody in anesthetized Balb/c mice (Blankenberg et al., 1998, 1999; Rodriguez et al., 1996).
Before the MRI acquisition, the mice are anesthetized with pentobarbital. The experiments are carried out using a 200 MHz Bruker spectrometer (4.7 T) equipped with a vertical magnet and with a mini-imaging system. […] The signal intensity (SI) is measured in the liver. The SI value is also measured in a tube filled with a 2% aqueous solution of gelatin enriched with 50 μM Gd-DTPA, used as a reference product, in a region outside the image of the mouse which corresponds to the background noise. […]
For the two models, the SI values are measured in various regions of interest (at the level of the arterial wall of the abdominal aorta or whole liver) using the OSIRIS image analysis software. […] The SI value is measured on all the image slices where the arterial wall and the liver are visible. […] The % ΔSNR is calculated according to the following equation:
% ΔSNR=[(SIpost/SDnoise)−(SIpre/SDnoise)]/[SIpre/SDnoise]×100 where SDnoise is the standard deviation of the noise measured on a region outside the animal.

[6] = Relaxivity measurements (r1, r2) in aqueous solution; assay type: physicochemical
Protocol: The relaxation times T1 and T2 were determined by standard procedures on a Minispec 120 instrument (Bruker) at 20 MHz (0.47T) and 37° C. The longitudinal relaxation time T1 is measured using an inversion-recovery sequence and the transverse relaxation time T2 is measured using a CPMG technique.
The relaxation rates R1 (=1/T1) and R2 (=1/T2) were calculated for various concentrations of total metal (ranging from 0.1×10^−3 to 1×10^−3 mol/l) in an aqueous solution at 37° C. The correlation between R1 or R2 as a function of the concentration is linear, and the slope represents the relaxivity r1 (R1/C) or r2 (R2/C) expressed as (1/second)×(1/mmol/l), i.e. (s^−1.mM^−1).

## annexin V: endogenous protein of 35 kDa with high affinity and specificity for PS
[1]
  IC50: 1.08 nM

## USPIO-LIKKPF: USPIO-PEG-PEPTIDE P contrast product with PEPTIDE P being LIKKPF; product of example 1, PEG size not stated (also: coupled to USPIO nanoparticle via PEG linker, site not given here)
[2]
  Kd: 78.5 nM
[3]
  IC50: 420 nM
[4]
  MRI signal of diseased vs healthy cells: diseased cells show a darker signal than the others
  uptake of contrast agent (standardized relaxation rate and iron concentration): diseased cells have taken up a larger amount of vectorized contrast agent
[5]
  targeting of diseased regions by MRI: more marked at the 5th day
Apoptotic Jurkat cells; Jurkat cells, 2 μM camptothecin 24 hours, 3 or 4 mM iron, 2 hours at 37° C.
  binding to apoptotic cells by MRI (signal intensity vs control cells): binds specifically to the apoptotic cells
Apoptotic Jurkat cells; apoptotic cells, 3 mM and 4 mM Fe, FIG. 4
  decrease in MRI signal induced by incubation, vs unfunctionalized USPIO: greater than that recorded with the unfunctionalized USPIO

## O=C([O-])CN(CCN(CC(=O)[O-])CC(=O)O)CCN(CC(=O)[O-])CC(=O)O.[Gd+3] [Gd-DTPA, reference compound]
Mouse apoptotic liver; healthy mouse
  MRI signal enhancement in the healthy mouse: only a partial signal enhancement

## Peptide No. 1-DTPAGd: Bz-NCS-DTPA condensed with peptide Asp-Ala-His-Ser-Phe-SerOH, complexed with gadolinium (DAHSFS; Bz-NCS-DTPA-Gd conjugate; printed: Asp-Ala-His-Ser-Phe-Ser)
[6]
  Relaxivities measured at 20 MHz (37° C.): 6.8 s⁻¹ mM⁻¹

## Leu-Ile-Lys-Lys-Pro-Phe-OH (LIKKPF-OH)
Mouse apoptotic liver; peptide preinjected at 100 μmol/kg, apoptotic liver
  effect of preinjection on the enhancement caused by Gd-DTPA-LIKKPF: blocks the enhancement caused by the Gd-DTPA-LIKKPF

## Peptide No. 3-DTPAGd: Bz-NCS-DTPA condensed with peptide Pro-Gly-Asp-Leu-Ser-Arg-OH, complexed with gadolinium (PGDLSR; Bz-NCS-DTPA-Gd conjugate; printed: Pro-Gly-Asp-Leu-Ser-Arg-)
[6]
  Relaxivities measured at 20 MHz (37° C.): 6.7 s⁻¹ mM⁻¹
